Results reported in patent US20090209638A1, “TREATMENT FOR DEPRESSIVE DISORDERS” (priority 2006, published 2009).

Experiments:
[1] = test system: cerebellar cGMP; assay: Stress-induced cerebellar cGMP elevation; type: in vivo, Rats; conditions: for activity in the stress-induced cGMP assay: data not shown, levels similar to what was observed for MA-1
Method: Protocol: Animals were placed into a shock chamber with a steel grid floor and shocked at 1 mA for 10 seconds. One minute following the stressor, the animals were placed into a plastic restraint tube and sacrificed by microwave irradiation (1.8 sec at 3.5 kW). The cerebellum was rapidly removed, snap frozen, and stored at −80° C. prior to the cGMP assay. Non-stressed animals were taken directly from their cages and sacrificed by microwave irradiation and tissues were processed in a similar manner. Drug dosing was performed 30-60 min prior to foot-shock stress. For the cGMP assay, the tissue was homogenized in 2 ml of 1% perchloric acid using a Brinkman Polytron at setting #5 for ˜15 sec each and placed on ice until all samples were homogenized. Samples were then placed in an 85C water bath for 5 min, centrifuged at 2500G for 15 min, and ˜0.5 ml of the supernatant was collected for analysis. Supernatants were diluted 1:20 in sodium acetate buffer according to the directions of the manufacturer of the 1251-cGMP flashplates. Diluted samples were incubated overnight in flashplate wells with 1251-cGMP, assayed on a gamma-counter plate reader, and converted to pmol cGMP/mg tissue using a standard curve generated in the same experiment.

[2] = test system: Rats; assay: Rat Forced Swim Test (behavioral despair test); type: in vivo; conditions: for decrease in immobility time: dark phase
Method: Protocol: Animals were tested in the forced swim test using the protocol originally described by Porsolt et al (Eur. J. Pharmacol., 47, 379-391,1978). Rats were individually placed in a cylinder (Height=40 cm, Diameter=20 cm) containing 13 cm water (25° C.) for 15 minutes on the first day of the experiment (Session 1) and were then put back in the water 24 hours later for a 5 minute test (Session 2). The duration of immobility during the 5 minute test was measured. Six rats were studied per group. The test was performed blind. Session 1 and Session 2 were performed either during the light cycle, i.e. between 2.5 and 5.5 hours after lights-on, or during the dark cycle, i.e. between 2.5 and 5.5 hours after lights-off. The tests during the light cycle were therefore performed between 9:30 am and 12:30 pm, whereas the tests during the dark cycle, because of the light cycle shift, were performed between 14:30 pm and 17:30 pm.
To permit the 2 phases of the experiment (light phase and dark phase) to be performed on the same day by the same laboratory technician, the animals to be tested during the dark phase were submitted to a light cycle shift 12 days prior to the first session of the forced swim test whereby the light/dark cycle was advanced 7 hours (lights-on: 0:00 am, lights-off: 12:00 pm). The 12-day period was estimated to be sufficient for the dark-cycle animals to adjust to the shift. To habituate the rats to the light cycle shift, the dark-cycle animals were submitted to the shift 12 days prior to Session 1. To ensure otherwise similar conditions between the light-cycle and dark-cycle animals, all animals to be used in the experiment were from the same delivery batch and were placed in their experimental living cages at the same time, i.e. 12 days before Session 1.
Testing during the light phase was performed under normal laboratory illumination, and testing during the dark phase was performed under infrared illumination. MA-1, agomelatine, and melatonin were evaluated at 2 oral (p.o.) doses each, administered twice (24 hours and 1 hour before Session 2). The first administration was given immediately after Session 1. Imipramine (64 mg/kg p.o.), administered twice under the same experimental conditions, was used as reference substance.

[3] = test system: Mice; assay: Mouse Forced Swim Test; type: in vivo
Method: Protocol: Animals were maintained on a 12:12 LD cycle with lights on at 0600 h. Mice were placed into the testing room at least 1 h prior to the start of the test. Vehicle, amitriptyline and MA-1 were administered under one of three conditions: A) acute treatment, animals dosed 30 minutes prior to testing; B) 4 day subchronic AM treatment, with dosing occurring during the early morning period (0900-1100 h), with the final dose occurring 30 min prior to testing; and C) subchronic PM treatment with dosing occurring during the evening period (1730-1800 h, right before lights off), and the forced swim test took place the following morning. Animals were tested in the forced swim test using a modification of the protocol originally described by Porsolt et al. (1978). Mice were placed into 1 L beakers (KIMAX #14005) filled with 800 ml of water (20-22° C.) for a 7 min swim period. Animals were only scored for the last 5 minutes of the test and were assigned either a “0” if they were actively swimming or “1” if they were immobile, except for small movements needed to keep afloat. During the 5 minute scoring period, there are ten 30 sec intervals scored for a total possible score of 0-10 for each mouse. Data was reported as median (interquartile range). Each study was run independently with separate groups of naive mice. Data were analyzed using Statview (SAS, Cary, N.C.) with a Kruskal-Wallis analysis, followed by Mann-Whitney U-test with the significance level set at p<0.05.

[4] = test system: Rats; assay: Modified forced swim test in rats (study not reported); type: in vivo, rat; conditions: 5 mg/kg and 10 mg/kg
[5] = Solubility of MA-1; type: physicochemical
[6] = biological target: Melatonin-1 (MT1) receptor (Homo sapiens, UniProt P48039); conditions: cited from earlier work
[7] = biological target: T1, Melatonin-2 (MT2) receptor (Homo sapiens, UniProt P49286); conditions: cited from earlier work
T1 sequence (P49286 1-362): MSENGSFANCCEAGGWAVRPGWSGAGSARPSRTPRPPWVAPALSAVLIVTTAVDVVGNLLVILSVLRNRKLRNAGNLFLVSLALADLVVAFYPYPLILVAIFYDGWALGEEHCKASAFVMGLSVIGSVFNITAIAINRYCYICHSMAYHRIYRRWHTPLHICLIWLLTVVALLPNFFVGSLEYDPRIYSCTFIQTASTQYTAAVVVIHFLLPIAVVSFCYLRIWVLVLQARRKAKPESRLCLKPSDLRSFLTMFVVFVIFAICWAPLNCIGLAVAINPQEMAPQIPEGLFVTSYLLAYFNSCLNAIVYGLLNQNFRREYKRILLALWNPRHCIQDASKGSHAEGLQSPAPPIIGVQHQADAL

[8] = dark cycle, 10 mg/kg p.o. −24 h and −60 min
[9] = dark cycle, 50 mg/kg p.o. −24 h and −60 min
[10] = light cycle, 10 mg/kg p.o. −24 h and −60 min
[11] = light cycle, 50 mg/kg p.o. −24 h and −60 min
[12] = dark cycle, 64 mg/kg p.o. −24 h and −60 min
[13] = light cycle, 64 mg/kg p.o. −24 h and −60 min
[14] = condition A: acute treatment, testing 30 minute post-dose
[15] = condition B: 4-day sub-chronic AM dosing, testing 30 minutes following final dose
[16] = condition C: 4-day sub-chronic PM dosing, testing the following morning
[17] = dark cycle, 1 mg/kg p.o. −24 h and −60 min
[18] = light cycle, 1 mg/kg p.o. −24 h and −60 min

Melatonin-1 (MT1) receptor, sequence (P48039 whole entry): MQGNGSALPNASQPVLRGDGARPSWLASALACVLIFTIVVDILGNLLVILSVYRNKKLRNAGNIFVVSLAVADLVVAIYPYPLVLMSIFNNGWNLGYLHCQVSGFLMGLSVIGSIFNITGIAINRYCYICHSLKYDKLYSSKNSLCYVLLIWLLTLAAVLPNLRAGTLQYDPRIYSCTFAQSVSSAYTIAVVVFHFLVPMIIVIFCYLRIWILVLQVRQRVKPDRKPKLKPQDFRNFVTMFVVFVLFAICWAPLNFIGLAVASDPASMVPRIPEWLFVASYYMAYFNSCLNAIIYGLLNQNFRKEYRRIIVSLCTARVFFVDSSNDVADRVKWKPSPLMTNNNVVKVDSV

SMILES: COc1ccc2cccc(CCNC(C)=O)c2c1 [agomelatine]
- activity in the stress-induced cGMP assay [1]: shown activity
- DURATION OF IMMOBILITY % change from control [2, 8]: −60%
- DURATION OF IMMOBILITY mean ± s.e.m. [2, 8]: 84.8 ± 8.2 s
- DURATION OF IMMOBILITY % change from control [2, 9]: −33%
- DURATION OF IMMOBILITY mean ± s.e.m. [2, 9]: 140.2 ± 19.1 s
- decrease in immobility time ([2]; 10 mg/kg): 60%
- decrease in immobility time ([2]; 50 mg/kg): 33%
- DURATION OF IMMOBILITY % change from control [2, 10]: −42%
- DURATION OF IMMOBILITY mean ± s.e.m. [2, 10]: 97.8 ± 13.5 s
- DURATION OF IMMOBILITY % change from control [2, 11]: +13%
- DURATION OF IMMOBILITY mean ± s.e.m. [2, 11]: 191.0 ± 9.4 NS s

SMILES: CN(C)CCCN1c2ccccc2CCc2ccccc21 [Imipramine]
- DURATION OF IMMOBILITY % change from control [2, 12]: −70%
- DURATION OF IMMOBILITY mean ± s.e.m. [2, 12]: 63.0 ± 11.1 s
- DURATION OF IMMOBILITY % change from control [2, 13]: −71%
- DURATION OF IMMOBILITY mean ± s.e.m. [2, 13]: 49.5 ± 10.6 s

SMILES: CCC(=O)NC[C@@H]1C[C@H]1c1cccc2c1CCO2 [MA-1, (1R-trans)-N-[[2-(2,3-dihydro-4-benzofuranyl)cyclopropyl]methyl]propanamide]
- attenuation of shock-induced increase in cerebellar cGMP levels ([1]; rats, electric shock 1 mA 10 s, doses of 0.1-10 mg/kg, dosed 30-60 min prior to foot-shock, no dose-responsiveness): ~50%
- activity in mouse forced swim model [3, 14]: did not demonstrate activity
- activity in mouse forced swim model [3, 15]: did not demonstrate activity
- activity in mouse forced swim model [3, 16]: did not demonstrate activity
- DURATION OF IMMOBILITY % change from control [2, 17]: −37%
- DURATION OF IMMOBILITY mean ± s.e.m. [2, 17]: 133.0 ± 6.6 s
- DURATION OF IMMOBILITY % change from control [2, 8]: −41%
- DURATION OF IMMOBILITY mean ± s.e.m. [2, 8]: 124.8 ± 18.8 s
- decrease in immobility time ([2]; 1 mg/kg): 37%
- decrease in immobility time ([2]; 10 mg/kg): 41%
- DURATION OF IMMOBILITY % change from control [2, 18]: −14%
- DURATION OF IMMOBILITY mean ± s.e.m. [2, 18]: 145.3 ± 26.0 NS s
- DURATION OF IMMOBILITY % change from control [2, 10]: −25%
- DURATION OF IMMOBILITY mean ± s.e.m. [2, 10]: 126.3 ± 26.9 NS s
- effects on immobility, swimming, or climbing statistically different from vehicle [4]: did not show effects
- effect of pH on aqueous solubility [5]: practically unaffected by pH
- solubility ([5]; in 95% ethanol, methanol, acetonitrile, ethyl acetate, isopropanol, polyethylene glycols (PEG-300 and PEG-400)): very soluble or freely soluble
- solubility ([5]; in water): only slightly soluble
- native pH of a saturated solution in water ([5]; saturated solution in water): 8.5
- affinity [6]: high affinity
- affinity [7]: high affinity

SMILES: CN(C)CCC=C1c2ccccc2CCc2ccccc21 [Amitriptyline]
- activity in mouse forced swim model [3, 14]: active
- activity in mouse forced swim model [3, 15]: active
- activity in mouse forced swim model [3, 16]: did not show activity

SMILES: COc1ccc2[nH]cc(CCNC(C)=O)c2c1 [Melatonin, melatonin]
- activity in the stress-induced cGMP assay [1]: shown activity
- DURATION OF IMMOBILITY % change from control [2, 8]: −37%
- DURATION OF IMMOBILITY mean ± s.e.m. [2, 8]: 132.8 ± 16.5 s
- DURATION OF IMMOBILITY % change from control [2, 9]: −21%
- DURATION OF IMMOBILITY mean ± s.e.m. [2, 9]: 166.8 ± 16.6 s
- DURATION OF IMMOBILITY % change from control [2, 10]: −40%
- DURATION OF IMMOBILITY mean ± s.e.m. [2, 10]: 101.3 ± 18.8 s
- DURATION OF IMMOBILITY % change from control [2, 11]: 0%
- DURATION OF IMMOBILITY mean ± s.e.m. [2, 11]: 167.7 ± 10.8 NS s
